Where a name gives a salt, the structure may show the parent alone.
The compounds below were run against GCN2 (Homo sapiens, UniProt Q9P2K8) (assay: GCN2 enzymatic endpoint assay: phosphorylation of GFP-eIF2α measured by TR-FRET (Lanthascreen)). Conditions: GCN2 biochemical IC50; 4 nM GCN2, 2 μM ATP, 80 nM GFP-eIF2α, 90 min RT; read-out: GCN2 activity.
Sequence of GCN2 (Q9P2K8 whole entry): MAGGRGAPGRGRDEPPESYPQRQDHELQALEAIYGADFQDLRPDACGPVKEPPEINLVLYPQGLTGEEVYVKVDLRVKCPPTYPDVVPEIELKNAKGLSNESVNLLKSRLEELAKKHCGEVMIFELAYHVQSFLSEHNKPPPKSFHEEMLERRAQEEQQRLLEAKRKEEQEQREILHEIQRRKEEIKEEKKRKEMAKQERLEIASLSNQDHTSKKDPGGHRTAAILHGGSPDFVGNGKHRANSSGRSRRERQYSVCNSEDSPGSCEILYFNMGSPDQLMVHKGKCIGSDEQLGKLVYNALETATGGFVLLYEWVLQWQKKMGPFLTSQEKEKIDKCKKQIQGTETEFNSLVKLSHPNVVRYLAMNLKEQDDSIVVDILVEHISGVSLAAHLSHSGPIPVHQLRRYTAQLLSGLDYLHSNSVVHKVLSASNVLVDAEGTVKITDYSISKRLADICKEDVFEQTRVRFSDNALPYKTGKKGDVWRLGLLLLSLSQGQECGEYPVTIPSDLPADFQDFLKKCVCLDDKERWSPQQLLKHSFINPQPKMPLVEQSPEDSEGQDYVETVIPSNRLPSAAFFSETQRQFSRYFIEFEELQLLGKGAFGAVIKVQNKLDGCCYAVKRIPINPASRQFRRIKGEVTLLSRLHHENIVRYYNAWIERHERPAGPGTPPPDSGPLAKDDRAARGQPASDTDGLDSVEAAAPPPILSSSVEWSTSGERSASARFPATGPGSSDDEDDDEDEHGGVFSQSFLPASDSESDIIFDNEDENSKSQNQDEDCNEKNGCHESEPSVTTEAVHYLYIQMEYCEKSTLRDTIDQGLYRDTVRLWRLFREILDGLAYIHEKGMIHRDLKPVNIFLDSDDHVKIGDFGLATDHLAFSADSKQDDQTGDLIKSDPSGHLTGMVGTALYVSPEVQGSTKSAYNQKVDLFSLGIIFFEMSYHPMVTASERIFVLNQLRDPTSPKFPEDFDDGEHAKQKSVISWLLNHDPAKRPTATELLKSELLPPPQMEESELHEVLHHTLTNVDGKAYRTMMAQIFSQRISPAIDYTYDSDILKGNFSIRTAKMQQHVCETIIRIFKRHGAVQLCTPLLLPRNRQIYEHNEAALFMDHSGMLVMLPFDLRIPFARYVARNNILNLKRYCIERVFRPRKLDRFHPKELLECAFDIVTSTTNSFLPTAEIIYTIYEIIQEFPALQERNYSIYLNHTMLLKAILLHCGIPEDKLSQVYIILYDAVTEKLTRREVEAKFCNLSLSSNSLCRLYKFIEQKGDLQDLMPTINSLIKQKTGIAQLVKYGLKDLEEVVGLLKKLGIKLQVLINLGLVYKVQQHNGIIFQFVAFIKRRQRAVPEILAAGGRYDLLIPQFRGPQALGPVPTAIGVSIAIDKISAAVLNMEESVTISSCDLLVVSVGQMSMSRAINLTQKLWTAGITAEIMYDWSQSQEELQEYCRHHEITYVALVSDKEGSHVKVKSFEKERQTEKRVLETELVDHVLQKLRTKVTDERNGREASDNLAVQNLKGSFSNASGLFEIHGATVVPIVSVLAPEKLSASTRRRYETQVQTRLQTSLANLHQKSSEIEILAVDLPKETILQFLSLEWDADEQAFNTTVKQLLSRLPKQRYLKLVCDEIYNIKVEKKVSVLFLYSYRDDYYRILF
Assay type: biochemical
In short: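 Read-out is the TR-FRET ratio of acceptor signal at 520 nm to terbium donor at 495 nm, rising with antibody binding to phosphorylated GFP-eIF2α. Endpoint format: 2 μM ATP, 80 nM substrate, 90 minutes at room temperature, EDTA stop.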
For `CNC(=O)[C@]1(C)CC[C@@H](Nc2ncc3c(Br)nn(-c4cc(Cl)cc(CCN)c4)c3n2)C1` [Example 41, (1R,3R)-3-((1-(3-(2-aminoethyl)-5-chlorophenyl)-3-bromo-1H-pyrazolo[3,4-d]pyrimidin-6-yl)amino)-N,1-dimethylcyclopentane-1-carboxamide hydrochloride], the IC50 was less than 25 nM. `CNC(=O)[C@]1(CC#N)CC[C@@H](Nc2ncc3c(Br)nn(-c4cc(F)c5ncccc5c4)c3n2)C1` [Example 40, (1R,3R)-3-((3-bromo-1-(8-fluoroquinolin-6-yl)-1H-pyrazolo[3,4-d]pyrimidin-6-yl)amino)-1-(cyanomethyl)-N-methylcyclopentane-1-carboxamide hydrochloride] gave an IC50 of less than 25 nM.

Same assay, conditions: tested as described in Example 77; compound and/or hydrochloride, dihydrochloride or trifluoroacetic acid salt; read-out: IC 50 Activity
`COCCNC(=O)[C@@H]1CCC(Nc2ncc3c(Br)nn(-c4ccc(-c5nnc(C)s5)cc4)c3n2)C1` (stereo partly drawn) [(1R)-3-[[3-bromo-1-[4-(5-methyl-1,3,4-thiadiazol-2-yl)phenyl]pyrazolo[3,4-d]pyrimidin-6-yl]amino]-N-(2-methoxy-ethyl)cyclopentanecarboxamide] gave an IC50 of 25 to 200 nM. `CS(=O)(=O)CCNC(=O)[C@@H]1CC[C@@H](Nc2ncc3c(Br)nn(-c4ccc5ncccc5c4)c3n2)C1` [(1R,3R)-3-((3-bromo-1-(quinolin-6-yl)-1H-pyrazolo[3,4-d]pyrimidin-6-yl)amino)-N-(2-(methylsulfonyl)ethyl)cyclopentane-1-carboxamide] showed an IC50 of 200 to 500 nM. `CNC(=O)[C@@]1(CC(F)F)CC[C@@H](Nc2ncc3c(Br)nn(-c4ccc(-c5nnc(C)o5)cc4)c3n2)C1` [(1S,3R)-3-[[3-bromo-1-[4-(5-methyl-1,3,4-oxadiazol-2-yl)phenyl]pyrazolo[3,4-d]pyrimidin-6-yl]amino]-1-(2,2-difluoroethyl)-N-methyl-cyclopentanecarboxamide] showed an IC50 of 25 to 200 nM. Work on `CNC(=O)[C@]1(C)CC[C@@H](Nc2ncc3c(Br)nn(-c4cc(C5(CN)CC5)c5ncccc5c4)c3n2)C1` [(1R,3R)-3-[[1-[8-[1-(aminomethyl)cyclo-propyl]-6-quinolyl]-3-bromo-pyrazolo [3,4-d]pyrimidin-6-yl]amino]-N,1-dimethyl-cyclopentanecarboxamide] yielded an IC50 of 25 to 200 nM. With `CNC(=O)[C@]1(C)CC[C@@H](Nc2ncc3c(Br)nn(-c4cc(F)c5ncccc5c4)c3n2)C1` [(1R,3R)-3-((3-bromo-1-(8-fluoroquinolin-6-yl)-1H-pyrazolo[3,4-d]pyrimidin-6-yl)amino)-N,1-dimethylcyclopentane-1-carboxamide] the IC50 was 25 to 200 nM. `CNC(=O)[C@]1(C)CC[C@@H](Nc2ncc3c(Br)nn(-c4cc(CC#N)c5ncccc5c4)c3n2)C1` [(1R,3R)-3-[[3-bromo-1-[8-(cyanomethyl)-6-quinolyl]pyrazolo[3,4-d]pyrimidin-6-yl]amino]-N,1-dimethyl-cyclopentane-carboxamide] gave an IC50 of less than 25 nM. `CNC(=O)[C@]1(CCCOC)CC[C@@H](Nc2ncc3c(Br)nn(-c4cc(F)c5ncccc5c4)c3n2)C1` [(1S,3R)-3-[[3-bromo-1-(8-fluoro-6-quinolyl)pyrazolo[3,4-d]pyrimidin-6-yl]amino]-1-(3-methoxypropyl)-N-methyl-cyclopentane-carboxamide] showed an IC50 of less than 25 nM. In the case of `N#Cc1cc(-n2nc(Br)c3cnc(N[C@@H]4CC[C@@H](C(=O)N5CCN(C(=O)CO)CC5)C4)nc32)cc2cccnc12` [6-(3-bromo-6-(((1R,3R)-3-(4-(2-hydroxyacetyl)piperazine-1-carbonyl)cyclopentyl)amino)-1H-pyrazolo[3,4-d]pyrimidin-1-yl)quinoline-8-carbonitrile], the IC50 is reported as 25 to 200 nM. For `CC1(C(=O)N2CC3CCC(C2)O3)CC[C@@H](Nc2ncc3c(Br)nn(-c4cc(F)c5ncccc5c4)c3n2)C1` (stereo partly drawn) [[(3R)-3-[[3-bromo-1-(8-fluoro-6-quinolyl)pyrazolo[3,4-d]pyrimidin-6-yl]amino]-1-methyl-cyclopentyl]-(8-oxa-3-azabicyclo [3.2.1]octan-3-yl)methanone], the IC50 was less than 25 nM. `CNC(=O)[C@]1(C)CC[C@@H](Nc2ncc3c(Br)nn(-c4ccc5ncncc5c4)c3n2)C1` [(1R,3R)-3-[(3-bromo-1-quinazolin-6-yl-pyrazolo[3,4-d]pyrimidin-6-yl)amino]-N,1-dimethyl-cyclopentane-carboxamide] was tested, and the IC50 was 25 to 200 nM. `CNC(=O)[C@]1(C)CC[C@@H](Nc2ncc3c(Br)nn(-c4cc(Br)cc(CO)c4)c3n2)C1` [(1R,3R)-3-[[3-bromo-1-[3-bromo-5-(hydroxymethyl)phenyl]pyrazolo [3,4-d]pyrimidin-6-yl]amino]-N,1-dimethyl-cyclopentanecarboxamide] was tested, and the IC50 was 25 to 200 nM. With `CN(CC(C)(C)O)C(=O)[C@]1(C)CC[C@@H](Nc2ncc3c(Br)nn(-c4cc(F)c5ncccc5c4)c3n2)C1` [(1R,3R)-3-[[3-bromo-1-(8-fluoro-6-quinolyl)pyrazolo[3,4-d]pyrimidin-6-yl]amino]-N-(2-hydroxy-2-methyl-propyl)-N,1-dimethyl-cyclopentanecarboxamide] the IC50 was less than 25 nM. Work on `CNC(=O)C1(C)CC[C@@H](Nc2ncc3c(Br)nn(-c4cccc(C(C)(C)O)c4)c3n2)C1` (stereo partly drawn) [(3R)-3-[[3-bromo-1-[3-(1-hydroxy-1-methyl-ethyl)phenyl]pyrazolo[3,4-d]pyrimidin-6-yl]amino]-N,1-dimethyl-cyclopentane-carboxamide] yielded an IC50 of 25 to 200 nM. Work on `CC[C@H](N)c1cc(Cl)cc(-n2nc(Br)c3cnc(N[C@@H]4CC[C@@](C)(C(=O)NC)C4)nc32)c1` yielded an IC50 of 25 to 200 nM. Compound `Cc1nnc(-c2ccc(-n3nc(Br)c4cnc(N[C@@H]5CCC(C)(C(=O)N6C[C@@H](C)O[C@H](C)C6)C5)nc43)cc2)o1` (stereo partly drawn) [[(3R)-3-[[3-bromo-1-[4-(5-methyl-1,3,4-oxadiazol-2-yl)phenyl]pyrazolo[3,4-d]pyrimidin-6-yl]amino]-1-methyl-cyclopentyl]-[(2R,6R)-2,6-dimethylmorpholin-4-yl]methanone] has an IC50 of 25 to 200 nM. `CNC(=O)[C@@]1(C)CC[C@@H](Nc2ncc3c(Br)nn(-c4ccc5ncc(CCO)cc5c4)c3n2)C1` [(1S,3R)-3-[[3-bromo-1-[3-(2-hydroxy-ethyl)-6-quinolyl]pyrazolo[3,4-d]pyrimidin-6-yl]amino]-N,1-dimethyl-cyclopentanecarboxamide] was tested, and the IC50 was less than 25 nM. `CNC(=O)[C@]1(C)CC[C@@H](Nc2ncc3c(Br)nn(-c4cc(CC(C)(C)O)c5ncccc5c4)c3n2)C1` [(1R,3R)-3-[[3-bromo-1-[8-(2-hydroxy-2-methyl-propyl)-6-quinolyl]pyrazolo[3,4-d]pyrimidin-6-yl]amino]-N,1-dimethyl-cyclopentanecarboxamide] gave an IC50 of 25 to 200 nM. `CNC(=O)[C@]1(C#N)CC[C@@H](Nc2ncc3c(Br)nn(-c4ccc(-c5nnc(C)s5)c(CCC#N)c4)c3n2)C1` showed an IC50 of 25 to 200 nM. Work on `N#Cc1cc(-n2nc(Br)c3cnc(N[C@@H]4CC[C@@H](C(=O)NCC5(F)CNC5)C4)nc32)cc2cccnc12` yielded an IC50 of less than 25 nM. For `CNC(=O)[C@]1(C)CC[C@@H](Nc2ncc3c(Br)nn(-c4ccc(-c5nnc(C(C)CO)o5)cc4)c3n2)C1` (stereo partly drawn) [(1R,3R)-3-[[3-bromo-1-[4-[5-(2-hydroxy-1-methyl-ethyl)-1,3,4-oxadiazol-2-yl]phenyl]pyrazolo[3,4-d]pyrimidin-6-yl]amino]-N,1-dimethyl-cyclopentane-carboxamide], the IC50 was less than 25 nM. `O[C@@H]1CC[C@@H](Nc2ncc3c(Br)nn(-c4cc(F)c5ncccc5c4)c3n2)C1` [(1R,3R)-3-[[3-bromo-1-(8-fluoro-6-quinolyl)pyrazolo[3,4-d]pyrimidin-6-yl]amino]cyclopentanol] gave an IC50 of 25 to 200 nM. Work on `CP(C)(=O)[C@@H]1CC[C@@H](Nc2ncc3c(Br)nn(-c4cc(CCN)c5nccnc5c4)c3n2)C1` [1-[8-(2-aminoethyl)quinoxalin-6-yl]-3-bromo-N-[(1R,3R)-3-dimethylphosphorylcyclopentyl] pyrazolo[3,4-d]pyrimidin-6-amine] yielded an IC50 of 25 to 200 nM. In the case of `Cc1ccc2cc(-n3nc(Br)c4cnc(N[C@@H]5CC[C@@H](P(C)(C)=O)C5)nc43)cc(F)c2n1` [3-bromo-N-[(1R,3R)-3-dimethylphosphoryl-cyclopentyl]-1-(8-fluoro-2-methyl-6-quinolyl) pyrazolo[3,4-d]pyrimidin-6-amine], the IC50 is reported as 25 to 200 nM. `CNC(=O)[C@]1(C)CC[C@@H](Nc2ncc3c(Br)nn(-c4ccc5nncn5c4)c3n2)C1` [(1R,3R)-3-[[3-bromo-1-([1,2,4]triazolo [4,3-a]pyridin-6-yl)pyrazolo[3,4-d]pyrimidin-6-yl]amino]-N,1-dimethyl-cyclopentanecarboxamide] showed an IC50 of 25 to 200 nM. Work on `CS(=O)(=O)CCNC(=O)[C@@H]1CC[C@@H](Nc2ncc3c(Br)nn(-c4cnn(-c5ccncc5)c4)c3n2)C1` [(1R,3R)-3-((3-bromo-1-(1-(pyridin-4-yl)-1H-pyrazol-4-yl)-1H-pyrazolo[3,4-d]pyrimidin-6-yl)amino)-N-(2-(methylsulfonyl)ethyl)cyclo-pentane-1-carboxamide] yielded an IC50 of 200 to 500 nM. Compound `CNC(=O)[C@]1([C@@H](C)C#N)CC[C@@H](Nc2ncc3c(Br)nn(-c4ccc(-c5nnc(C)s5)cc4)c3n2)C1` [(1R,3R)-3-[[3-bromo-1-[4-(5-methyl-1,3,4-thiadiazol-2-yl)phenyl]pyrazolo [3,4-d]pyrimidin-6-yl]amino]-1-[(1R)-1-cyanoethyl]-N-methyl-cyclopentane-carboxamide] has an IC50 of 25 to 200 nM. `COCCNS(=O)(=O)[C@H]1CC[C@@H](Nc2ncc3c(Br)nn(-c4ccc(-c5nnc(C)s5)cc4)c3n2)C1` [(1S,3R)-3-[[3-bromo-1-[4-(5-methyl-1,3,4-thiadiazol-2-yl)phenyl]pyrazolo[3,4-d]pyrimidin-6-yl]amino]-N-(2-methoxyethyl)cyclopentanesulfonamide] showed an IC50 of 25 to 200 nM. Work on `C[C@@]1(C(=O)N2CCNC(=O)C2)CC[C@@H](Nc2ncc3c(Br)nn(-c4cc(F)c5ncccc5c4)c3n2)C1` [4-[(1R,3R)-3-[[3-bromo-1-(8-fluoro-6-quinolyl)pyrazolo[3,4-d]pyrimidin-6-yl]amino]-1-methyl-cyclopentanecarbonyl] piperazin-2-one] yielded an IC50 of less than 25 nM.

Reference: US11046699B2, “Pyrazolo-pyrimidin-amino-cycloalkyl compounds and their therapeutic uses” (RAPT THERAPEUTICS, INC., priority 2018, dated 2021)
